Assay results: patent publication US6451789B1, “1-aza-2-alky-6-aryl-cycloalkanes” (Les Labortoires Servier, priority 1999, dated 2002)

Columns and labels:
Type in all cases: in vivo
Wistar rat [1] = assay: Object recognition in the Wistar rat; details: 30 minutes before each session, 24 hours between sessions
Description: Object Recognition in the Wistar Rat
The object recognition test in the Wistar rat was initially developed by ENNACEUR and DELACOUR (Behav. Brain Res., 1988, 31, 47-59). The test is based on the spontaneous exploratory activity of the animal and has he characteristics of episodic memory in humans. This memory test is sensitive to ageing (SCALI et al., Eur. J. Pharmacol., 1997, 325, 173-180) and to cholinergic dysfunctions (BARTOLINI et al., Pharm. Biochem. Behav. 1996, 53(2), 277-283) and is based on the differences in the exploration of 2 objects of fairly similar shape—one familiar, the other new. Prior to the test, the animals are habituated to the environment (an enclosure without an object). In the course of a first session, the rats are placed (3 minutes) in the enclosure, in which there are 2 identical objects. The duration of exploration is measured for each object. In the course of the second session (3 minutes), 24 hours later, 1 of the 2 objects is replaced by a new object. The duration of exploration is measured for each object. The assessment criterion is the difference, Delta, expressed in seconds, between the exploration times for the new object and for the familiar object in the course of the second session.
The Table hereinbelow gives the difference, Delta, expressed in seconds, between the exploration times of the 2 objects.

NMRI mouse = assay: Abdominal contractions induced by phenyl-p-benzoquinone (PBQ) in the NMRI mouse; details: IP, PBQ at t=30 min, cramps counted t=35-45 min
Procedure: Abdominal Contractions Induced by Phenyl-p-Benzoquinone (PBQ) in the NMRI Mouse
Intraperitoneal administration of an alcoholic solution of PBQ causes abdominal cramps in the mouse (SIEGNUND et al., Proc. Soc. Exp. Biol., 1957, 95, 729-731). The cramps are characterized by repeated contractions of the abdominal musculature, accompanied by extension of the hind limbs. Most analgesics antagonise these abdominal cramps (COLLIER et al., Brit. J. Pharmacol. Chem., 1968, 32, 295-310). At t=0 min., the animals are weight and the compound being studied is administered by the IP route. A group of contol animals is given the solvent used for the compound. At t=30 min., an alcoholic solution of PBQ (0.2%) is administered by the IP route in a volume of 0.25 ml/mouse. Immediately after administration of the PBQ, the animals are placed in cylinders of plexiglass (L=19.5 cm; I.D.=5 cm). From t=35 min. to t=45 min., the animals' reaction is observed and the experimenter notes the total number of abdominal cramps per animal. The Table hereinbelow gives the percentage inhibition of the number of abdominal cramps measured in the control animals, at the active dose of the compound studied.

Wistar rat [2] = assay: Social recognition in the Wistar rat; details: intraperitoneal route, dose 3 mg/kg, second encounter after 2 hours
Description: Social Recognition in the Wistar Rat
Initially described in 1982 by THOR and HOLLOWAY, (J. Comp. Physiol., 1982, 96, 1000-1006), the social recognition test has subsequently been proposed by various authors (DANTZER et al., Psychopharmacology, 1987, 91, 363-368; PERIO et al., Psycho-pharmacology, 1989, 97, 262-268) for studying the mnemocognitive effects of new compounds. The test is based on the natural expression of the olfactory memory of the rat and its natural tendency to forget and allows evaluation of memorisation, by recognition of a young congeneric animal, by an adult rat. A young rat (21 days), taken at random, is placed for 5 minutes in the cage housing an adult rat. With the aid of a video device, the experimenter observes the social recognition behaviour of the adult rat and measures its overall duration. The young rat is then removed from the adult rat's cage and is placed in its own cage until the second introduction. The adult rat is given the compound under test by intraperitoneal route and, after 2 hours, is again brought into the presence (5 minutes) of the young rat. The social recognition behaviour is then observed again and its duration measured.
The Table hereinbelow gives the difference (T2—T1), expressed in seconds, between the “recognition” times of the 2 encounters.

## CC1=CC(=O)C[C@@H](c2cccc(Cl)c2)N1 [Example 18, (2S)-2-(3-Chlorophenyl)-6-methyl-2,3-dihydro-4-(1H)-pyridinone]
Wistar rat [1]; dose 1 mg/kg, p.o.
  Delta (s), difference between exploration times for new and familiar object: 6.2 s

## CC1=CC(=O)CC(c2ccc(Cl)c(Cl)c2)N1 (racemic) [Example 26, (±)-2-(3,4-Dichlorophenyl)-6-methyl-2,3-dihydro-4(1H)-pyridinone]
NMRI mouse; dose 10 mg/kg
  Inhibition (%) of the number of abdominal cramps: 55%

## CC1=CC(=O)CC(c2ccc(Cl)cc2)CN1 (racemic) [Example 25, (±)-6-(4-Chlorophenyl)-2-methyl-1,5,6,7-tetrahydro-4H-azepin-4-one]
NMRI mouse; dose 20 mg/kg
  Inhibition (%) of the number of abdominal cramps: 69%

## COc1cccc(C2CC(=O)C=C(C)N2)c1 (racemic) [Example 27, (±)-2-(3-Methoxyphenyl)-6-methyl-2,3-dihydro-4(1H)-pyridinone]
Wistar rat [1]; dose 3 mg/kg, i.p.
  Delta (s), difference between exploration times for new and familiar object: 6.68 s

## CC1=CC(=O)CC(c2ccsc2)N1 (racemic) [Example 30, (±)-6-Methyl-2-(3-thienyl)-2,3-dihydro-4(1H)-pyridinone]
NMRI mouse; dose 20 mg/kg
  Inhibition (%) of the number of abdominal cramps: 51%

## CC1=CC(=O)CC(c2cccnc2)N1 (racemic) [Example 36, (±)-6-Methyl-2-(3-pyridyl)-2,3-dihydro-4(1H)-pyridinone]
Wistar rat [2]
  T2 − T1 (s), difference between the recognition times of the 2 encounters: -36 s

## CC1=CC(=O)CC(c2cccc(Cl)c2)N1 (racemic) [Example 1, (±)-2-(3-Chlorophenyl)-6-methyl-2,3-dihydro-4(1H)-pyridinone]
NMRI mouse; dose 10 mg/kg
  Inhibition (%) of the number of abdominal cramps: 51%
Wistar rat [2]
  T2 − T1 (s), difference between the recognition times of the 2 encounters: -36 s
Wistar rat [1]; dose 0.3 mg/kg, i.p.
  Delta (s), difference between exploration times for new and familiar object: 7.5 s
Wistar rat [1]; dose 0.3 mg/kg, p.o.
  Delta (s), difference between exploration times for new and familiar object: 9.95 s

## C[C@@H]1C[C@H](O)C[C@H](c2ccccc2)N1.O=C(O)C(=O)O (relative stereo) [Example 22, (2R*,4S*,6R*)-2-Phenyl-6-methyl-4-piperidinol oxalate]
Wistar rat [1]; dose 0.3 mg/kg, i.p.
  Delta (s), difference between exploration times for new and familiar object: 9.98 s
Wistar rat [1]; dose 3 mg/kg, p.o.
  Delta (s), difference between exploration times for new and familiar object: 5.93 s

## C[C@@H]1C[C@H](O)C[C@H](c2ccccc2)N1.Cl (relative stereo) [Example 21, (2R*,4S*,6R*)-2-Phenyl-6-methyl-4-piperidinol hydrochloride]
Wistar rat [2]
  T2 − T1 (s), difference between the recognition times of the 2 encounters: -33 s

## CC1=CC(=O)CC(c2ccc(Cl)cc2)N1 (racemic) [Example 24, (±)-2-(4-Chlorophenyl)-6-methyl-2,3-dihydro-4(1H)-pyridinone]
Wistar rat [2]
  T2 − T1 (s), difference between the recognition times of the 2 encounters: -32 s
Wistar rat [1]; dose 3 mg/kg, i.p.
  Delta (s), difference between exploration times for new and familiar object: 7.55 s
